{
  "source": "paper PMC9668914",
  "about": "“Understanding VPAC receptor family peptide binding and selectivity” (Nature Communications, 2022)",
  "key": {"PAC1R": {"target": "T1, PAC1R (Homo sapiens, UniProt P41586)", "T1 construct": "An HA signal peptide was inserted in place of the native signal peptide of the receptors; HA signal peptide (replaces the native signal peptide) (N); 3C protease cleavage sites (between FLAG and receptor, and between receptor and His) (internal); expressed in transfected cells; host or cells: COS-7 (transient, PEI)", "T1 sequence (P41586 21-468)": "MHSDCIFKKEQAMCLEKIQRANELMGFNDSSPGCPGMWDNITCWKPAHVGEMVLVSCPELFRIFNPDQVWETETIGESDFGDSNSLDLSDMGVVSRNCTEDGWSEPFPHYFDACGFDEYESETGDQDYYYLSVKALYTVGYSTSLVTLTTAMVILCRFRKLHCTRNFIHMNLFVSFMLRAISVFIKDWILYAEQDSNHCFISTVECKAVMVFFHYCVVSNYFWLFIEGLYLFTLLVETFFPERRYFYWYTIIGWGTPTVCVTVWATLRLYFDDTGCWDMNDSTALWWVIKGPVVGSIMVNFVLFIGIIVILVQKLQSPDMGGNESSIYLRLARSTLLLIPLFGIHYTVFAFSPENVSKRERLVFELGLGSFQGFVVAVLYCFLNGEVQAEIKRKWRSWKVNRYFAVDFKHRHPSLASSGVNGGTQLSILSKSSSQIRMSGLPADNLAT", "experiment": "cAMP accumulation, chimeric peptides (Fig. 5b)", "format": "cell-based", "conditions": "COS-7, three-parameter logistic, read-out: pEC50, PAC1R cAMP (converted)", "from_the_text": "(§1) An HA signal peptide was inserted in place of the native signal peptide of the receptors and a FLAG epitope was incorporated into the receptor N-terminus immediately after the signal peptide. A His tag was fused to C-terminus of the receptor. 3C protease cleavage sites were inserted between both the FLAG and His tags and the receptor. […] The following PAC1R and VPAC1R mutants were also generated using Quikchange mutagenesis: PAC1R C25A, PAC1R C219A, PAC1R C25A/C219A, VPAC1R C37A and VPAC1R C208A. For all PAC1R constructs, we used the PAC1R null (PAC1n) splice variant. A construct containing N-terminal NLuc immediately after the native signal peptide of PAC1R was also generated in pcDNA3.1.\nCOS-7 cells were used for the chimeric peptide and cysteine mutagenesis pharmacological assays due to their lack of endogenous expression of PAC1R and receptor activity-modifying proteins, reported to potentially heterodimerize with PAC1R and VPAC1R[42]. Cells were cultured in Dulbecco’s Modified Eagle’s Medium (DMEM) (Invitrogen) supplemented with 5% v/v heat-inactivated FBS at 37 °C and […] /5% CO2 in a humidified incubator. COS-7 cells were plated in 10 cm dishes at approximately 1 million cells/dish. Cells were transfected 24 h later, with 5 µg of either WT or mutant PAC1R or VPAC1R receptor DNA. DNA and PEI (in a 1:6 ratio) were each diluted in 150 mM NaCl, and then combined and incubated for 10 min, before the mixture was added to the 10 cm dish. The next day, cells were harvested from the 10 cm dishes using Trypsin-Versene (PBS + 0.5 mM EDTA, pH 7.4), and were seeded at a density of 15,000 cells/well into clear 96-well culture plates and incubated overnight at 37 °C in 5% CO2 for cAMP accumulation assay the next day.\nThe reaction was terminated after 30 min by aspiration of the buffer and addition of 50 μl of ice-cold ethanol. Upon evaporation of ethanol, 75 μl of lysis buffer (5 mM HEPES, 0.1% (w/v) OVA, 0.3% (w/v) Tween20, pH 7.4) was added to the cells. cAMP detection was performed using a LANCE cAMP Detection Kit (PerkinElmer) for the construct validation and cysteine mutagenesis pharmacological assays and cAMP Gs HiRange kit (Cisbio) for the chimeric peptide pharmacological assays. The plates were read using an EnVision plate reader with excitation at 320 nm and emission at 615 nm[45].\n(§2) The pharmacological data in figures and tables are reported as mean + standard error of the mean (SEM) with the number of biological replicates indicated in the figure and table legends where “n” represents the number of biological replicates performed. Concentration-response data were analyzed in GraphPad Prism version 9.4.0 using a three-parameter logistic curve to derive pEC50 values for the cyclic AMP accumulation. Competition binding data were analyzed in GraphPad Prism using the one site—Fit log IC50 model to derive pIC50 values. For the cysteine mutagenesis data, comparisons of multiple different groups were performed using one-way analysis of variance (ANOVA), followed by Dunnett’s post-hoc test with the control group being the WT receptor, with significance accepted at p < 0.05. For the chimeric peptide data, comparisons of multiple different groups were performed using one-way ANOVA, followed by Tukey’s post-hoc test, with significance accepted at p < 0.05."}, "Nluc-PAC1R": {"target": "T2, Nluc-PAC1R (Homo sapiens, UniProt P41586)", "T2 construct": "A construct containing N-terminal NLuc immediately after the native signal peptide of PAC1R was also generated in pcDNA3.1; expressed in transfected cells; host or cells: COS-7 (transient, PEI; whole cells at 4 °C)", "T2 sequence (P41586 21-468)": "T1 sequence (P41586 21-468)", "experiment": "NanoBRET competition binding, AF568-PACAP27 probe (Fig. 5c)", "conditions": "COS-7, 30 nM AF568-PACAP27, 4 °C, read-out: pIC50, PAC1R competition binding (converted)", "from_the_text": "as §1\nTherefore, the lysine residue at position 21 was replaced with a cysteine residue (^21C) for the facile conjugation of fluorophore via thiol-maleimide click reaction. The resulting target peptide ^21C-PACAP27 (Mutant fragment) with amidated C-terminus was synthesized by standard Fmoc-solid phase peptide synthesis method[43] and purified by Reversed-phase high-performance liquid chromatography (RP-HPLC). […] of Alexa Fluor™ 568F was purchased from ThermoFisher Scientific (Catalog number: A20003). The thiol-maleimide conjugation reaction was carried out by our published protocol. […] The molecular weight of the probe was confirmed by Matrix-Assisted Laser Desorption/Ionization Time-of-Flight Mass Spectrometry (MALDI-TOF MS).\nCOS-7 cells were plated in 10 cm dishes at approximately 1 million cells/dish. Cells were transfected 24 h later, using 3 μg of Nluc-PAC1R DNA using the method described above and then seeded at a density of 15,000 cells per well in white-bottom 96-well culturplates 24 h prior to assay. On the day of the assay, cell culture media was replaced with BRET buffer (0.1% ovalbumin, 10 mM HEPES, 1x HBSS, pH 7.45) and incubated at 4 °C for two hours. […] After 1.5 h, furimazine (10 μM final concentration) was added to each well and the plate incubated for a further 30 min in the dark at 4 °C before reading. Filtered light emissions were measured at 460±40 nm (donor channel) and at 610-LP nm (long pass) (acceptor channel) using a PHERAstar plate reader (BMG Labtech). The raw NanoBRET ratio was calculated by dividing the luminescence from the acceptor channel by the donor channel. Data were expressed as % AF568-PACAP27 BRET signal in the absence of competing ligand.\nas §2"}},
  "note": "Where two headings read alike, the source gives them in different places. No end group written: not given here.",
  "data": [
    {"compound": "CC[C@H](C)[C@H](NC(=O)[C@H](C)NC(=O)[C@H](CC(=O)O)NC(=O)[C@H](CO)NC(=O)[C@@H](N)Cc1cnc[nH]1)C(=O)N[C@@H](Cc1ccccc1)C(=O)N[C@H](C(=O)N[C@@H](CC(=O)O)C(=O)N[C@@H](CO)C(=O)N[C@@H](Cc1ccc(O)cc1)C(=O)N[C@@H](CO)C(=O)N[C@@H](CCCNC(=N)N)C(=O)N[C@@H](Cc1ccc(O)cc1)C(=O)N[C@@H](CCCNC(=N)N)C(=O)N[C@@H](CCCCN)C(=O)N[C@@H](CCC(N)=O)C(=O)N[C@@H](CCSC)C(=O)N[C@@H](C)C(=O)N[C@H](C(=O)N[C@@H](CCCCN)C(=O)N[C@@H](CCCCN)C(=O)N[C@@H](Cc1ccc(O)cc1)C(=O)N[C@@H](CC(C)C)C(=O)N[C@@H](C)C(=O)N[C@@H](C)C(=O)N[C@H](C(=O)N[C@@H](CC(C)C)C(N)=O)C(C)C)C(C)C)[C@@H](C)O", "note": "[Ala4 PACAP27]", "values": [
      {"measurement": "EC50", "setting": "PAC1R; replicate n=1", "result": 0.00348, "unit": "µM"},
      {"measurement": "EC50", "setting": "PAC1R; replicate n=2", "result": 0.00167, "unit": "µM"},
      {"measurement": "EC50", "setting": "PAC1R; replicate n=3", "result": 0.00205, "unit": "µM"},
      {"measurement": "EC50", "setting": "PAC1R; replicate n=4", "result": 0.00865, "unit": "µM"},
      {"measurement": "EC50", "setting": "PAC1R; replicate n=5", "result": 0.00332, "unit": "µM"},
      {"measurement": "IC50", "setting": "Nluc-PAC1R; replicate n=1", "result": 0.695, "unit": "µM"},
      {"measurement": "IC50", "setting": "Nluc-PAC1R; replicate n=2", "result": 1.97, "unit": "µM"},
      {"measurement": "IC50", "setting": "Nluc-PAC1R; replicate n=3", "result": 0.546, "unit": "µM"},
      {"measurement": "IC50", "setting": "Nluc-PAC1R; replicate n=4", "result": 0.918, "unit": "µM"},
      {"measurement": "IC50", "setting": "Nluc-PAC1R; replicate n=5", "result": 2.86, "unit": "µM"}
    ]},
    {"compound": "HSDGVFTDNYTRLRKQMAVKKYLNSILN-NH2 [Gly4 VIP]", "values": [
      {"measurement": "EC50", "setting": "PAC1R; replicate n=1", "result": 0.0287, "unit": "µM"},
      {"measurement": "EC50", "setting": "PAC1R; replicate n=2", "result": 0.012, "unit": "µM"},
      {"measurement": "EC50", "setting": "PAC1R; replicate n=3", "result": 0.0126, "unit": "µM"},
      {"measurement": "EC50", "setting": "PAC1R; replicate n=4", "result": 0.0236, "unit": "µM"},
      {"measurement": "EC50", "setting": "PAC1R; replicate n=5", "result": 0.00796, "unit": "µM"},
      {"measurement": "IC50", "setting": "Nluc-PAC1R; replicate n=1", "result": 7.55, "unit": "µM"},
      {"measurement": "IC50", "setting": "Nluc-PAC1R; replicate n=2", "result": 5.5, "unit": "µM"},
      {"measurement": "IC50", "setting": "Nluc-PAC1R; replicate n=3", "result": 7.11, "unit": "µM"},
      {"measurement": "IC50", "setting": "Nluc-PAC1R; replicate n=4", "result": 3.4, "unit": "µM"},
      {"measurement": "IC50", "setting": "Nluc-PAC1R; replicate n=5", "result": 1.14, "unit": "µM"}
    ]}
  ]
}
